Experimental findings from patent publication US10570184B2, “GLP-1/glucagon receptor co-agonists for medical use” (Novo Nordisk A/S, priority 2014, dated 2020) are described below.

The structures appear in SMILES notation. Starred links: 1 amine or outer side, 2 acyl side, 3 side chain; linkers in the order of their positions; H or OH if unused. Non-standard residues stand in square brackets, D forms with d. Residues, ends and D or L forms follow the SMILES beside them. Groups on a side chain read outwards from the residue. *: point of attachment. C18 diacid = O=C(O)CCCCCCCCCCCCCCCCC(=O)*; γGlu = O=C(O)[C@H](CCC(=O)[*:2])N[*:1]; Ac4c = NC1(C(=O)O)CCC1; AEEA = NCCOCCOCC(=O)O; Aib = CC(C)(N)C(=O)O

For the assay, the target named is T1, human glucagon receptor (Homo sapiens, UniProt P47871).
T1 construct: expressed in transfected cells; host or cells: membranes of BHK cells, clone BHK hGCGR A3*25
T1 sequence (P47871 26-477): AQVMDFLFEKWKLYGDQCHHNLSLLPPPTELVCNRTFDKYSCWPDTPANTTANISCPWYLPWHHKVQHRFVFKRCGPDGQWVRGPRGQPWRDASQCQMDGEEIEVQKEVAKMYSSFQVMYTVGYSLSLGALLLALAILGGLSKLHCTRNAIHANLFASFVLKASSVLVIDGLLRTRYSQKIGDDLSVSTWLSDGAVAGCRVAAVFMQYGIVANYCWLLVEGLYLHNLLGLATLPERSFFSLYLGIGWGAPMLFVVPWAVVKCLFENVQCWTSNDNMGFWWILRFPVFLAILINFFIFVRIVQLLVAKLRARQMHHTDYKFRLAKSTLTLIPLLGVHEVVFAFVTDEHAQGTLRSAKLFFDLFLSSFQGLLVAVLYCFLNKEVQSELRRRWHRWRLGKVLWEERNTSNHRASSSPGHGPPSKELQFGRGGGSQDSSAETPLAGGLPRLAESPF
Kind of assay: Assay (I)(b) glucagon receptor activation, CRE luciferase reporter gene assay in BHK cells. It is filed as cell-based. To be noted: without presence of serum albumin; read-out: GlucagonR EC50 (pM), [Assay (I)(b)]. Here is the method:
The purpose of this example was to test the activity or potency, of the glucagon derivatives of the invention, in vitro. The in vitro potency is the measure of human GLP-1 receptor (GLP-1R) or glucagon receptor (glucagonR) activation, respectively, in a whole cell assay. In vitro potency was determined by measuring the response of human GLP-1 or glucagon receptor, respectively, in a reporter gene assay. The assay was performed in a stably transfected BHK cell line that expresses either the human GLP-1 receptor or the human glucagon receptor and contains the DNA for the cAMP response element (CRE) coupled to a promoter and the gene for firefly luciferase (CRE luciferase). […] When assay incubation was completed, the luciferase substrate (luciferin) was added and the enzyme converted luciferin to oxyluciferin and produces bioluminescence. The luminescence was measured as the readout for the assay. The cells used in this assay (clone pLJ6′-4-25) were BHK cells with BHK570 as a parent cell line expressing the CRE luciferase gene (clone BHK/KZ10-20-48) and were established by further transfection with the human glucagon receptor (clone pLJ6′ in pHZ-1 vector). The cells were cultured at 5% CO2 in DMEM medium with 10% FBS, 1×GlutaMAX, 1 mg/ml G418, 240 nM MTX (methotrexate) and 1% pen/strep (penicillin/streptomycin). They were aliquoted and stored in liquid nitrogen. Before each assay, an aliquot was taken up and washed three times in PBS before being suspended at the desired concentration in assay medium. For 96-well plates the suspension was made to give a final concentration of 5×10EE3 cells/well. The following chemicals were used in the assay: Pluronic F-68 (10%) (Gibco 2404), ovalbumin (Sigma A5503), DMEM w/o phenol red (Gibco 11880-028), 1 M Hepes (Gibco 15630), Glutamax 100× (Gibco 35050) and steadylite plus (PerkinElmer 6016757). Assay Medium consisted of DMEM w/o phenol red, 10 mM Hepes, 1× GlutaMAX, 2% Ovalbumin and 0.2% Pluronic F-68. Cell stocks were thawed in a 37° C. water bath. Cells were washed three times in PBS. The cells were counted and adjusted to 5×10EE3 cells/50 μl (1×10EE5 cells/ml) in Assay Medium. A 50 μl aliquot of cells was transferred to each well in the assay plate. Stocks of the test compounds and reference compounds were diluted to a concentration of […] in Assay Medium. Compounds were diluted 10-fold to give the following concentrations: 2×10EE-6 M, 2×10EE-7 M, 2×10EE-8 M; 2×10EE-9 M, 2×10EE-10 M, 2×10EE-11 M, 2×10EE-12 M and 2×10EE-13 M. For each compound a blank assay medium control was also included. A 50 μl aliquot of compound or blank was transferred from the dilution plate to the assay plate. Compounds were tested at the following final concentrations: 1×10EE-6 M, 1×10EE-7 M, 1×10EE-8 M; 1×10EE-9 M, 1×10EE-10 M, 1×10EE-11 M and 1×10EE-12 M and 1×10EE-13 M. The assay plate was incubated for 3 h in a 5% CO2 incubator at 37° C. The assay plate was removed from the incubator and allowed to stand at room temperature for 15 min. A 100 μl aliquot of steadylite plus reagent was added to each well of the assay plate (reagent is light sensitive). Each assay plate was covered with aluminum foil to protect it from light and shaken for 30 min at room temperature. Each assay plate was read in a Perkin Elmer TopCount NXT instrument. The data from the TopCount instrument was transferred to GraphPad Prism software. The software performed a non-linear regression (log(agonist) vs response-Variable slope (four parameter)). EC50 values were calculated by the software and reported in pM.
A general note: A reporter such as luciferase makes a cellular process visible.

As to `CC[C@H](C)[C@H](NC(=O)[C@H](CC(C)C)NC(=O)[C@H](Cc1c[nH]c2ccccc12)NC(=O)[C@H](CCC(N)=O)NC(=O)[C@@H](NC(=O)[C@H](Cc1ccccc1)NC(=O)[C@H](CCC(=O)O)NC(=O)[C@H](CCCNC(=N)N)NC(=O)[C@H](C)NC(=O)[C@H](CCCNC(=N)N)NC(=O)[C@H](CCCNC(=N)N)NC(=O)[C@H](CO)NC(=O)[C@H](CCC(=O)O)NC(=O)[C@H](CC(C)C)NC(=O)[C@H](Cc1ccc(O)cc1)NC(=O)[C@H](CCCCN)NC(=O)[C@H](CO)NC(=O)[C@H](CC(C)C)NC(=O)[C@H](CC(=O)O)NC(=O)[C@H](CO)NC(=O)[C@@H](NC(=O)[C@H](Cc1ccccc1)NC(=O)[C@@H](NC(=O)CNC(=O)[C@H](CCC(N)=O)NC(=O)C1(NC(=O)[C@@H](N)Cc2c[nH]cn2)CCC1)[C@@H](C)O)[C@@H](C)O)C(C)C)C(=O)N[C@@H](CCCCNC(=O)COCCOCCNC(=O)COCCOCCNC(=O)CC[C@H](NC(=O)CC[C@H](NC(=O)CCCCCCCCCCCCCCCCC(=O)O)C(=O)O)C(=O)O)C(=O)N[C@H](C(N)=O)[C@@H](C)O` [Chem. 18, N^ε28-[2-[2-[2-[[2-[2-[2-[[(4S)-4-carboxy-4-[[(4S)-4-carboxy-4-(17-carboxyheptadecanoylamino)butanoyl]amino]butanoyl]amino]ethoxy]ethoxy]acetyl]amino]ethoxy]ethoxy]acetyl]-[Acb2,Leu10,Glu15,Arg20,Glu21,Ile27,Lys28]-Glucagon amide] (H-H[Ac4c]QGTFTSDLSKYLESRRAREFVQWLIK([AEEA-AEEA-γGlu-γGlu-C18 diacid])T-NH2), the 50% effective concentration (EC50) is 32 pM. Take `CC[C@H](C)[C@H](NC(=O)[C@H](CC(C)C)NC(=O)[C@H](Cc1c[nH]c2ccccc12)NC(=O)[C@H](CCC(N)=O)NC(=O)[C@@H](NC(=O)[C@H](Cc1ccccc1)NC(=O)[C@H](CC(=O)O)NC(=O)[C@H](CCCNC(=N)N)NC(=O)[C@H](C)NC(=O)[C@H](CCCNC(=N)N)NC(=O)[C@H](CCCNC(=N)N)NC(=O)[C@H](C)NC(=O)[C@H](CC(=O)O)NC(=O)[C@H](CC(C)C)NC(=O)[C@H](Cc1ccc(O)cc1)NC(=O)[C@H](CCCCN)NC(=O)[C@H](CO)NC(=O)[C@H](CC(C)C)NC(=O)[C@H](CC(=O)O)NC(=O)[C@H](CO)NC(=O)[C@@H](NC(=O)[C@H](Cc1ccccc1)NC(=O)[C@@H](NC(=O)CNC(=O)[C@H](CCC(N)=O)NC(=O)C(C)(C)NC(=O)[C@@H](N)Cc1c[nH]cn1)[C@@H](C)O)[C@@H](C)O)C(C)C)C(=O)N[C@@H](CO)C(=O)N[C@@H](CCCCNC(=O)CC[C@H](NC(=O)CC[C@H](NC(=O)COCCOCCNC(=O)COCCOCCNC(=O)CC[C@H](NC(=O)CCCCCCCCCCCCCCCCC(=O)O)C(=O)O)C(=O)O)C(=O)O)C(N)=O` [Chem. 27, N^ε29-[(4S)-4-carboxy-4-[[(4S)-4-carboxy-4-[[2-[2-[2-[[2-[2-[2-[[(4S)-4-carboxy-4-(17-carboxyheptadecanoylamino)butanoyl]amino]ethoxy]ethoxy]acetyl]amino]ethoxy]ethoxy]acetyl]amino]butanoyl]amino]butanoyl]-[Aib2,Leu10,Ala16,Arg20,Ile27,Ser28,Lys29]-Glucagon amide] (H-H[Aib]QGTFTSDLSKYLDARRARDFVQWLISK([γGlu-γGlu-AEEA-AEEA-γGlu-C18 diacid])-NH2; N-terminus assumed): the EC50 came to 66 pM. Take `CC[C@H](C)[C@H](NC(=O)[C@H](CC(C)C)NC(=O)[C@H](Cc1c[nH]c2ccccc12)NC(=O)[C@H](C)NC(=O)[C@@H](NC(=O)[C@H](Cc1ccccc1)NC(=O)[C@H](CC(=O)O)NC(=O)[C@H](CCC(N)=O)NC(=O)[C@H](C)NC(=O)[C@H](CCCNC(=N)N)NC(=O)[C@H](CCCNC(=N)N)NC(=O)[C@H](CO)NC(=O)[C@H](CCC(=O)O)NC(=O)[C@H](CC(C)C)NC(=O)[C@H](Cc1ccc(O)cc1)NC(=O)[C@H](CCCCN)NC(=O)[C@H](CO)NC(=O)[C@H](Cc1ccc(O)cc1)NC(=O)[C@H](CC(=O)O)NC(=O)[C@H](CO)NC(=O)[C@@H](NC(=O)[C@H](Cc1ccccc1)NC(=O)[C@@H](NC(=O)CNC(=O)[C@H](CCC(N)=O)NC(=O)C(C)(C)NC(=O)[C@@H](N)Cc1c[nH]cn1)[C@@H](C)O)[C@@H](C)O)C(C)C)C(=O)N[C@@H](CCCCNC(=O)CC[C@H](NC(=O)CC[C@H](NC(=O)COCCOCCNC(=O)COCCOCCNC(=O)CC[C@H](NC(=O)CCCCCCCCCCCCCCCCC(=O)O)C(=O)O)C(=O)O)C(=O)O)C(=O)N[C@H](C(N)=O)[C@@H](C)O` [Chem. 34, N^ε28-[(4S)-4-carboxy-4-[[(4S)-4-carboxy-4-[[2-[2-[2-[[2-[2-[2-[[(4S)-4-carboxy-4-(17-carboxyheptadecanoylamino)butanoyl]amino]ethoxy]ethoxy]acetyl]amino]ethoxy]ethoxy]acetyl]amino]butanoyl]amino]butanoyl]-[Aib2,Glu15,Ala24,Ile27,Lys28]-Glucagon amide] (H-H[Aib]QGTFTSDYSKYLESRRAQDFVAWLIK([γGlu-γGlu-AEEA-AEEA-γGlu-C18 diacid])T-NH2): the EC50 is 66 pM. Take `CC[C@H](C)[C@H](NC(=O)[C@H](CC(C)C)NC(=O)[C@H](Cc1c[nH]c2ccccc12)NC(=O)[C@H](C)NC(=O)[C@@H](NC(=O)[C@H](Cc1ccccc1)NC(=O)[C@H](CC(=O)O)NC(=O)[C@H](CCCNC(=N)N)NC(=O)[C@H](C)NC(=O)[C@H](CCCNC(=N)N)NC(=O)[C@H](CCCNC(=N)N)NC(=O)[C@H](C)NC(=O)[C@H](CC(=O)O)NC(=O)[C@H](CC(C)C)NC(=O)[C@H](Cc1ccc(O)cc1)NC(=O)[C@H](CCCCN)NC(=O)[C@H](CO)NC(=O)[C@H](Cc1ccc(O)cc1)NC(=O)[C@H](CC(=O)O)NC(=O)[C@H](CO)NC(=O)[C@@H](NC(=O)[C@H](Cc1ccccc1)NC(=O)[C@@H](NC(=O)CNC(=O)[C@H](CCC(N)=O)NC(=O)C(C)(C)NC(=O)[C@@H](N)Cc1c[nH]cn1)[C@@H](C)O)[C@@H](C)O)C(C)C)C(=O)N[C@@H](CCCCNC(=O)CC[C@H](NC(=O)CC[C@H](NC(=O)COCCOCCNC(=O)COCCOCCNC(=O)CC[C@H](NC(=O)CCCCCCCCCCCCCCCCC(=O)O)C(=O)O)C(=O)O)C(=O)O)C(=O)N[C@H](C(N)=O)[C@@H](C)O` [Chem. 32, N^ε28-[(4S)-4-carboxy-4-[[(4S)-4-carboxy-4-[[2-[2-[2-[[2-[2-[2-[[(4S)-4-carboxy-4-(17-carboxyheptadecanoylamino)butanoyl]amino]ethoxy]ethoxy]acetyl]amino]ethoxy]ethoxy]acetyl]amino]butanoyl]amino]butanoyl]-[Aib2,Ala16,Arg20,Ala24,Ile27,Lys28]-Glucagon amide] (H-H[Aib]QGTFTSDYSKYLDARRARDFVAWLIK([γGlu-γGlu-AEEA-AEEA-γGlu-C18 diacid])T-NH2): the half-maximal effective concentration (EC50) is 7 pM.

As a reminder, the EC50 is the concentration giving half of the maximal effect.
